Here are results for 18 compounds from PubChem BioAssay (NCI).

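All cell lines were grown in 96-well plates and treated with compound for 48 hours. The concentration for 50% growth inhibition is given as GI50. The concentration for full growth arrest is given as TGI.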

What all share (assay): NCI anticancer screen, dose series, 48 h
In assay [1] the test system is UO-31 renal.
Assay [2] relates to MDA-MB-231 breast.
The test system of assay [3] is BT-549 breast.
Assay [4] deals with DU-145 prostate.
Assay [5] deals with HCC-2998 colon.
In assay [6] the test system is CAKI-1 renal.
For assay [7], the system named is MDA-MB-435.
The test system of assay [8] is SNB-19 CNS.
Assay [9] has as its system K-562 leukemia.
For assay [10], the system named is SF-268 CNS.

Turning to `C=C1CC[C@H]2C(C)=CC[C@H]3C(=C)C(=O)O[C@@H]3[C@@H]12`, the TGI in assay [1], in [2], in [3], in assay [4], in [5] and in [6] was over 100 µM in each case. In addition, the TGI in assay [7], in assay [8] and in [9] was over 100 µM throughout.

With `OCCN(CO)CO`, the TGI in [1], in assay [2], in assay [3], in assay [4], in assay [5] and in [6] was over 100 µM throughout. In addition, the TGI in assay [7], in [8], in [9] and in [10] was over 100 µM throughout.

Take `CSC1=Nc2c(c(C)c(-c3ccccc3)n2COC(CO)CO)C2=NC(=O)CC(C)N12` (stereo not given): the GI50 in assay [1], in assay [2], in assay [3], in assay [4], in assay [5] and in assay [6] was over 100 µM in each case. Moreover, the GI50 in assay [7], in [8], in assay [9] and in [10] was over 100 µM in each case. For the same compound, the TGI in assay [1], in assay [2], in assay [3], in assay [4], in [5] and in assay [6] was over 100 µM in each case. Moreover, the TGI in assay [7], in assay [8], in [9] and in assay [10] was over 100 µM throughout.

Consider `C=CC(=O)Nc1cc2c(Nc3ccc(F)c(Cl)c3)ncnc2cc1C#CC(C)(C)N1CCN(C)CC1`, for which the GI50 was 0.244 µM in assay [1]; 1.27 µM in [2]; 1.6 µM in [3]; 1.11 µM in assay [4]; 1.83 µM in assay [5]; 0.973 µM in assay [6]. Besides, the GI50 is 1.5 µM in assay [7], 3.58 µM in assay [8], 1.05 µM in [9] and 1.84 µM in assay [10]. Also, the TGI stood at 4.4 µM in assay [1]; 2.73 µM in assay [2]; 3.47 µM in assay [3]; 4.86 µM in assay [4]; 4.25 µM in assay [5]; 4.05 µM in assay [6]. The TGI in assay [7] stood at 3.9 µM; in assay [8] it was 5.05 µM; in assay [9] it was 6.59 µM; in assay [10], 5.51 µM.

Turning to `COc1ccc(C2NC(=S)NC3=C2CCOc2c3ccc3ccccc23)cc1` (stereo not given), the GI50 is 98.3 µM in assay [1]; 98.9 µM in assay [2]; 68.8 µM in assay [3]; over 100 µM in [4]; over 100 µM in assay [6]; 36.4 µM in [7]. The GI50 in [8] was over 100 µM; in assay [9], 32.4 µM; in assay [10], 6.73 µM. For the same compound, the TGI in [1], in assay [2], in assay [3], in assay [4], in [6] and in assay [7] was over 100 µM throughout. The TGI in [8], in assay [9] and in [10] was over 100 µM each time.

Turning to `COc1ccccc1NC(=O)C1=C(C)NC(C)=C(C(=O)Nc2ccccc2OC)C1c1ccco1`, the TGI was over 83.5 µM in [1]; over 100 µM in assay [2]; over 100 µM in assay [3]; over 100 µM in assay [4]; 40.7 µM in assay [5]; over 24.1 µM in assay [6]. The TGI in [7] was 19.8 µM; in assay [8] it was 67.6 µM; in [9], over 63.5 µM; in assay [10] it was over 97.3 µM.

As for `COc1cc(-c2nn(-c3cccc(NC(=O)CCNc4ccc(N5CCOCC5)cc4)c3)cc2-c2ccncc2)ccc1Cl`, the GI50 was 2.7 µM in [1]; 2.05 µM in assay [2]; 3.41 µM in [3]; 4.04 µM in assay [4]; 4.77 µM in [5]; 2.41 µM in [7]. Also, the GI50 in assay [8] was 3.34 µM; in assay [10] it was 4.42 µM. Further, the TGI in [1] was over 100 µM; in assay [2] it was 7.18 µM; in assay [3], 31 µM; in [4], over 100 µM; in assay [5], over 100 µM; in [7], 7.28 µM. The TGI in assay [8] and in [10] was over 100 µM each time.

As to `COc1cc(/C=C2\SC(N3CCCCC3)=NC2=O)ccc1OCCCCCCOc1ccc(/C=C2\SC(N3CCCCC3)=NC2=O)cc1OC`, the GI50 is 13.2 µM in assay [1]; 2.13 µM in assay [2]; 4.29 µM in [3]; 5.26 µM in assay [4]; 13.6 µM in [5]; 22.7 µM in [6]. Also, the GI50 in assay [7] is 10.8 µM; in assay [8], 9.58 µM; in [10], 4.2 µM. Besides, the TGI in assay [1] was determined as 39.3 µM; in assay [2] it was 21 µM; in [3], 22.8 µM; in [4] it was 17.6 µM; in assay [5], 27 µM; in assay [6], 84.7 µM. For the same compound, the TGI in assay [7] is 79.1 µM; in [8], 39.7 µM; in [10], 17.6 µM.

As for `CCOC1Oc2ccc(C)cc2C(=O)/C1=C\Nc1ccc(S(N)(=O)=O)cc1` (stereo not given), the GI50 in assay [1] is 13.7 µM; in assay [2] it was 11.7 µM; in assay [3], 10.1 µM; in [4], 12.9 µM; in assay [6] it was 10.6 µM; in assay [7] it was 10 µM. Further, the values for the GI50 in [8], in assay [9] and in assay [10] were 16.1 µM, 15.2 µM and 16.1 µM, respectively. Further, the TGI is over 50 µM in assay [1]; 35.5 µM in [2]; 35.2 µM in [3]; 35.7 µM in [4]; 23.3 µM in assay [6]; 23.8 µM in [7]. The TGI in assay [8], in assay [9] and in assay [10] was over 50 µM throughout.

With `Nc1ccccc1C#Cc1ccccc1C#Cc1cccs1`, the GI50 was 19.1 µM in assay [1]; 11.8 µM in assay [2]; 15.9 µM in assay [3]; 20.6 µM in assay [4]; 11 µM in assay [6]; 4.03 µM in assay [7]. Also, the GI50 was 29.9 µM in [8], 15.5 µM in [9] and 20.4 µM in assay [10]. Further, the TGI in assay [1] was determined as 47.3 µM; in [2], 28.2 µM; in [3], 32.1 µM; in assay [4], 48 µM; in assay [6], 25.1 µM; in [7], 14.3 µM. The figures for the TGI in assay [8], in assay [9] and in assay [10] were over 100 µM, 40.7 µM and 42.8 µM, respectively.

On to `Cn1c(=O)c2c(nc(N/N=C/c3ccccc3C(=O)O)n2C)n(C)c1=O`, for which the TGI in assay [1], in [2], in assay [3], in assay [4], in [6] and in [7] was over 100 µM throughout. Also, the TGI in assay [8], in assay [9] and in assay [10] was over 100 µM in each case.

Regarding `Nc1ncc2ncn(C3CCC(CO)O3)c2n1` (stereo not given), the TGI in assay [1], in assay [2], in assay [3], in assay [4], in [6] and in assay [7] was over 100 µM throughout. The TGI in [8], in [9] and in assay [10] was over 100 µM in each case.

In the case of `Cc1cc(S(N)(=O)=O)c(S/C(=N\NS(=O)(=O)c2ccccc2)c2ccc(Cl)cc2)cc1Cl`, the GI50 in assay [1], in [2], in assay [3], in assay [4], in assay [6] and in [7] was over 100 µM each time. In addition, the GI50 was over 100 µM in [8], 59 µM in assay [9] and over 100 µM in [10]. Besides, the TGI in assay [1], in assay [2], in [3], in assay [4], in assay [6] and in [7] was over 100 µM throughout. The TGI in [8], in assay [9] and in [10] was over 100 µM each time.

For the compound `Cn1cnnc1[S-].[Au+].c1ccc([PH+](c2ccccc2)c2ccccc2)cc1`, the GI50 was 1.65 µM in assay [1]; 1.67 µM in assay [2]; 1.41 µM in [3]; 1.34 µM in assay [4]; 1.8 µM in assay [5]; 1.5 µM in assay [6]. In addition, the GI50 is 1.57 µM in [7], 1.62 µM in assay [8] and 1.7 µM in assay [10]. Further, the TGI in assay [1] is 3.01 µM; in assay [2], 3.08 µM; in [3], 2.76 µM; in [4] it was 2.66 µM; in assay [5], 3.23 µM; in [6], 2.82 µM. For the same compound, the TGI in assay [7] came to 2.98 µM; in assay [8], 3.02 µM; in [10] it was 3.44 µM.

`COc1ccc(C)cc1NC(=S)C#N`: the TGI in assay [2], in [3], in assay [4], in [5], in assay [6] and in assay [7] was over 100 µM in each case. Also, the TGI in assay [8], in [9] and in assay [10] was over 100 µM each time.

`O=c1cccc(Cl)[nH]1`: the TGI in assay [1], in assay [2], in [3], in [4], in [6] and in assay [7] was over 100 µM each time. Besides, the TGI in assay [8], in assay [9] and in assay [10] was over 100 µM throughout.

For `COc1ccc(-c2csc(Nc3cccc(-c4csc(C)n4)c3)n2)cc1`, the GI50 in assay [1] is 2.54 µM; in [2] it was 0.824 µM; in assay [3], 8.2 µM; in [4], 2.14 µM; in [6], 1.15 µM; in assay [7], 0.366 µM. Also, the GI50 in assay [8] is 1.04 µM; in assay [9], 0.137 µM; in assay [10], 2.48 µM. The TGI is over 50 µM in [1]; 4.52 µM in assay [2]; 40.3 µM in assay [3]; over 50 µM in assay [4]; over 14 µM in assay [6]; 1.02 µM in [7]. Also, the results for the TGI in assay [8], in assay [9] and in [10] were over 50 µM, 0.507 µM and over 50 µM, respectively.

Take `CCCCCC[C@H]1C(=O)O[C@H](C)[C@H](NC(=O)c2cccc(NC=O)c2OC)C(=O)O[C@@H](C)[C@@H]1OC(=O)CCC` (tested in a mixture with another compound): the GI50 was 13.2 µM in [1]; 13.5 µM in [2]; 11.9 µM in [3]; 11.7 µM in assay [4]; 14.9 µM in assay [5]; 9.71 µM in [6]. In addition, the values for the GI50 in assay [7], in assay [9] and in assay [10] were 9.6 µM, 4.99 µM and 13.7 µM, respectively. The TGI in assay [1] amounted to 29.3 µM; in assay [2], 34.2 µM; in [3], 35.5 µM; in assay [4], 30.1 µM; in assay [5], 38.2 µM; in assay [6], 24.4 µM. For the same compound, the TGI in [7] amounted to 27.9 µM; in assay [9], 33.9 µM; in assay [10] it was 36.6 µM.
